Measured values as given in PMC11671526, “β-caryophyllene sensitizes hepatocellular carcinoma cells to chemotherapeutics and inhibits cell malignancy through targeting MAPK signaling pathway” (Frontiers in Pharmacology, 2024).

System: HepG2 cells
Assay: RNA-seq transcriptome analysis of differentially expressed genes
Type: cell-based, human
Conditions: BCP vs control HepG2, RNA-seq
Experimental: The quality and concentration of RNA were examined by MOPS RNA electrophoresis and Eppendorf BioSpectrometer. The transcriptome analysis was performed by BGI-Wuhan China. The RNA-seq dataset of this study is accessible in the Gene Expression Omnibus (GEO) with an access number of GSE276099. The sequence library for each sample was prepared using the BGISEQ-500 platform with a 50-bp single-end (SE50) format. […]2.2.1) was used to align the clean reads to the reference genome and alignment of the clean reads to the reference genes was carried out using Bowtie2 (v2.4.5) ([Langmead and Salzberg, 2012]; [Kim et al., 2015]). Gene expression levels were calculated by RSEM (v1.3.1) ([Li and Dewey, 2011]). Analysis of differential gene expression was performed using edgeR in the Bioconductor software package ([Robinson et al., 2010]). Using a standard protocol, the RNA samples were also examined by reverse transcription and quantitative polymerase chain reaction (RT-qPCR). In brief, for reverse transcription, total RNA (1 μg) and gDNA wiper Mix were incubated at 42°C for 2 min. The samples were immediately incubated with a master mix containing 10 pmol/μL of poly (dT) primers at 37°C for 15 min and 85°C for 5 s. To detect the expression of specific genes by qPCR analysis, gene-specific primers (shown in Supplementary Table S1) were mixed with the ChamQ Universal SYBER qPCR Master Mix and the reaction was conducted using the Roche Lightcycler 480. The GAPDH value was used to normalize the results of each gene. The RNA-seq data of BCP-treated HepG2 cells were screened for DEGs. Gene symbols were turned into Enterz ID using the org.Hs.eg.db Bio-conductor R package. The cluster profiler (v4.6.2) package was used to perform the Kyoto Encyclopedia of Genes and Genomes (KEGG) and Gene Ontology (GO) enrichment analyses ([Wu et al., 2021]). Following the Transcript per million (TPM) data of the dataset, the line chart, and heatmap were plotted using ggplot2 and pheatmap R packages, respectively.

SMILES: C=C1CC/C=C(\C)CC[C@@H]2[C@@H]1CC2(C)C [BCP, β-caryophyllene]
- FAM167B logFC: -1.112
- FAM222A change: Down
- FAM222A logFC: -0.6769
- FAR2 change: Down
- FAR2 logFC: -0.7201
- FBXL22 change: Down
- FBXL22 logFC: -1.204
- FDXACB1 change: Down
- FDXACB1 logFC: -1.018
- FES change: Down
- FES logFC: -1.129
- FGF11 change: Down
- FGF11 logFC: -0.6148
- FGF12 change: Up
- FGF12 logFC: 0.873
- FHIT change: Up
- FHIT logFC: 0.955
- FICD change: Up
- FICD logFC: 0.637
- FUT3 change: Down
- FUT3 logFC: -0.9413
- GBP4 change: Down
- GBP4 logFC: -1.639
- GGT2 change: Up
- GGT2 logFC: 0.9035
- GJD3 change: Down
- GJD3 logFC: -0.6605
- GPD1 change: Up
- GPD1 logFC: 0.9345
- GPR3 change: Down
- GPR3 logFC: -1.067
- GPR158 change: Up
- GPR158 logFC: 0.961
- GRIP2 change: Down
- GRIP2 logFC: -0.6933
- H3C6 change: Down
- H3C6 logFC: -0.6656
- H4C8 change: Down
- H4C8 logFC: -0.9939
- HBA1 change: Down
- HBA1 logFC: -0.7699
- HPD change: Up
- HPD logFC: 0.6168
- HPGD change: Down
- HPGD logFC: -0.5852
- IFIT1 change: Down
- IFIT1 logFC: -0.7944
- IFIT2 change: Down
- IFIT2 logFC: -0.7214
- IL7R change: Down
- IL7R logFC: -0.8033
- IMMP2L change: Up
- IMMP2L logFC: 0.6542
- IQCG change: Up
- IQCG logFC: 0.9618
- ISYNA1 change: Down
- ISYNA1 logFC: -1.197
- JMJD7-PLA2G4B change: Up
- JMJD7-PLA2G4B logFC: 0.8598
- KCP change: Up
- KCP logFC: 1.479
- KHDC1 change: Down
- KHDC1 logFC: -0.6694
- KRT34 change: Up
- KRT34 logFC: 0.7278
- LOC100133315 change: Up
- LOC100133315 logFC: 0.7126
- LOC102724200 change: Up
- LOC102724200 logFC: 1.529
- LOC102724788 change: Up
- LOC102724788 logFC: 0.903
- LOC107984638 change: Down
- LOC107984638 logFC: -1.075
- LRRC56 change: Down
- LRRC56 logFC: -0.591
- LRRK2 change: Down
- LRRK2 logFC: -0.8118
- MAST4 change: Down
- MAST4 logFC: -0.6435
- MCTP2 change: Up
- MCTP2 logFC: 0.7514
- MORN4 change: Up
- MORN4 logFC: 0.6216
- MVB12B change: Up
- MVB12B logFC: 0.6743
- MXRA8 change: Down
- MXRA8 logFC: -0.6329
- MYB change: Down
- MYB logFC: -0.6747
- MYH14 change: Up
- MYH14 logFC: 0.8331
- MYPN change: Up
- MYPN logFC: 0.6564
- NCF2 change: Down
- NCF2 logFC: -1.214
- NEBL change: Up
- NEBL logFC: 0.5931
- NECAB2 change: Up
- NECAB2 logFC: 0.9799
- NEIL3 change: Up
- NEIL3 logFC: 0.6475
- NEK11 change: Up
- NEK11 logFC: 0.7755
- NFE2 change: Down
- NFE2 logFC: -0.6303
- NPHS1 change: Up
- NPHS1 logFC: 1.189
- NPIPA3 change: Down
- NPIPA3 logFC: -0.8968
- NPY4R change: Up
- NPY4R logFC: 0.7533
- NR5A2 change: Down
- NR5A2 logFC: -0.6198
- NR6A1 change: Down
- NR6A1 logFC: -0.7194
- NYAP1 change: Down
- NYAP1 logFC: -0.7161
